Reference: US10239847B1, “Method for 2-oxothiazolidine-4-carboxylic acid for cellular glutathione” (JBP Group LLC, priority 2016, dated 2019)
Entries after “also recorded” stand apart in the source; their conditions may differ. Read-outs that look alike come from different tables or passages of the source.

Assays:
[1] = system: Dog; test: Single IV toxicity (NOAEL/LOAEL), dog; format: in vivo; conditions: compared to IV dog, suggested human oral dose 0.025 g/kg
From the text: (§1) The following tables are a compilation of known results and estimates of NOAEL/LOAEL for various animal species and humans. […] In addition, genetic toxicity studies, Ames Test, Chromosome Aberration, and Mouse Micronucleus have been conducted and all of these studies were negative for genetic toxicity (i.e. non-genotoxic).
(§2) The following is a compilation of known results and estimates of NOAEL/LOAEL for various animal species and humans.

[2] = system: rats; test: Acute and repeat intravenous NOAEL in rats; format: in vivo; conditions: recommended daily intake 1.75 g (~25 mg/kg) compared to rat IV NOAEL
Protocol: (§3) Utilizing animal (dog and rat) data and comparing that to the recommended daily procysteine (Cellactin) intake of 1.75 g or ˜25 mg/kg, that represents 18× to 96× safety margin compared to acute no adverse effect level (NOAEL) and repeat NOAEL intravenous administration in dogs (450 mg/kg) and rats (2400 mg/kg), respectively. The safety margin may be even greater if compared to animal oral administration data.
(§4) Acute NOAEL and repeat NOAEL for intravenous administration in dogs was 450 mg/kg and in rats was 2400 mg/kg, with these values representing the highest dosages intravenously tested and it is assumed that the NOAEL levels would be even higher for oral administration in animals. […] Therefore, it is reasonable to expect that a recommended human oral, daily procysteine (Cellactin) intake of 1.75 grams will be safe and an acceptable daily intake of up to 9 grams orally could also be considered safe.

[3] = system: liver glutathione levels; conditions: fasted mice, dietary supplementation; cited from earlier work
[4] = system: Rat, neonate; conditions: in vivo, iv; cited from earlier work
[5] = system: Human HIV patients; conditions: single IV then six biweekly infusions, 13 administrations, highest dose tested; cited from earlier work
[6] = system: dogs; conditions: dog, in vivo; cited from earlier work
[7] = system: Rat; test: Once daily IV for 28 days, rat; format: in vivo; conditions: compared to IV rat, suggested human oral dose 0.025 g/kg
From the text: as §1, §2

[8] = system: Rat; conditions: in vivo, iv; cited from earlier work
[9] = system: glutathione in rat lungs and leukocytes; conditions: sulfur amino acid deficient rat diets, supplementation; cited from earlier work
[10] = system: human; conditions: cited from earlier work
[11] = system: patients with ARDS; conditions: first Phase II trial, 32 ARDS patients, IV; cited from earlier work
[12] = system: human; test: Human intravenous NOAEL calculations; format: in vivo; conditions: oral daily intake 1.75 grams compared to human intravenous NOAEL calculations
From the text: (§5) This would then result in an EDI/ADI ratio of 9 grams/day/9 grams/day=1. Without knowing the NOAEL or LOAEL for humans it is difficult to determine a true estimate of margin of safety. […] However, it would be reasonable to assume that a much higher estimate of safety margin would be expected based on the 4-8× estimate comparing oral, daily Procysteine (Cellactin) intake of 1.75 grams to human intravenous NOAEL calculations shown above in section 4.1 and 18 or 96× comparing to dog and rat intravenous NOAEL calculations, respectively shown above in Section 4.1. It is reasonable to conclude that the safety margin would be even greater if compared to animal oral administration data.
as §5, with “Without” for “This would then result in an EDI/ADI ratio of 9 grams/day/9 grams/day=1. Without”

[13] = system: Mouse; conditions: in vivo, iv; cited from earlier work
[14] = system: patients with ARDS; conditions: Phase II, versus placebo; cited from earlier work
[15] = Shelf life / purity stability of Cellactin; format: physicochemical
From the text: FIG. 9 illustrates Cellactin shelf life estimation by extrapolation. As depicted that upper dotted line indicates an upper acceptance of 100 percent stability. The lower dotted line indicates 99 percent stability. The solid line represents the extrapolation line with the triangles representing raw data. The product has been extrapolated to be stable for 2 years as supplied if stored in original package at ambient temperature and protected from heat and moisture. […] Confirmation of extrapolation assumes the change pattern may continue to fit model for at least 24 months.

[16] = system: Dog; test: Once daily IV for 28 days, dog; format: in vivo; conditions: compared to IV dog, suggested human oral dose 0.025 g/kg
From the text: as §1, §2

[17] = system: Human HIV patients; test: Clinical: oral daily for 6 months, HIV patients; format: in vivo; conditions: compared to human oral, suggested human oral dose 25 mg/kg/day
From the text: as §1, §2

[18] = system: tissue glutathione levels; conditions: rodent brains; cited from earlier work
[19] = system: tissue glutathione levels; conditions: acutely septic rats; cited from earlier work
[20] = system: Human HIV patients; test: Clinical: single IV then six biweekly infusions, 13 administrations, HIV patients; format: in vivo; conditions: compared to human IV; suggested human oral dose 25 mg/kg/day
From the text: as §1, §2

[21] = system: Human ARDS patients; conditions: IV every 8 hours for 10 days, highest dose tested, cited from earlier work
[22] = system: Human HIV patients; test: Clinical: oral ≥25 mg/kg daily for 1 week, HIV patients; format: in vivo; conditions: compared to human oral, suggested human oral dose 25 mg/kg/day
From the text: as §1, §2

[23] = system: Human HIV patients; test: Clinical: single oral dose then 3000, 4500, 9000 mg/day for 28 days, HIV patients; format: in vivo; conditions: compared to human oral, suggested human oral dose 25 mg/kg/day
From the text: as §1, §2

[24] = system: Human ARDS patients; test: Clinical: IV 63 mg/kg every 8 hours for 10 days, ARDS patients; format: in vivo; conditions: compared to IV human (ARDS); suggested human oral dose 25 mg/kg/day
From the text: as §1, §2

[25] = system: Mouse; conditions: in vivo; cited from earlier work
[26] = system: cellular glutathione levels; conditions: glutathione-depleting agents administered to otherwise healthy animals; cited from earlier work
[27] = system: Rat; test: Single IV toxicity (NOAEL/LOAEL), rat; format: in vivo; conditions: compared to IV rat, suggested human oral dose 0.025 g/kg
From the text: as §1, §2

[28] = system: Human HIV patients; test: Clinical: orally up to 9000 mg/day for 2 years, HIV patients; format: in vivo
[29] = system: dogs; test: Acute and repeat intravenous NOAEL in dogs; format: in vivo; conditions: recommended daily intake 1.75 g (~25 mg/kg) compared to dog IV NOAEL
Protocol: as §3, §4

[30] = system: blood glutathione levels; conditions: human, oral 25-129 mg/kg (1.75-9 g/day), dose response manner; cited from earlier work
[31] = system: Human HIV patients; conditions: oral ≥25 mg/kg daily for 1 week, highest dose tested; cited from earlier work
[32] = system: Dog; conditions: in vivo, iv; cited from earlier work
[33] = system: Human HIV patients; conditions: cited from earlier work
[34] = system: rats; conditions: rat, in vivo; cited from earlier work
[35] = system: Mouse; test: Single IV toxicity (NOAEL/LOAEL), mouse; format: in vivo; conditions: printed 'compared to IV rat', suggested human oral dose 0.025 g/kg
From the text: as §1, §2

[36] = system: Dog; conditions: in vivo, iv; cited from earlier work; remark: listed apart in the source
[37] = system: intracellular levels of glutathione; conditions: preclinical studies; cited from earlier work
[38] = system: Rat; conditions: in vivo, iv; cited from earlier work; remark: listed apart in the source
[39] = human, oral, as used for the EDI/ADI ratio

SMILES: O=C1N[C@H](C(=O)O)CS1 [procysteine, L-2-oxothiazolidine-4-carboxylate]
- Safety Margin Human Oral [1]: 18× compared
- safety margin [2]: 96 ×
- liver glutathione levels [3]: increased
- NOAEL [4]: ≥450 mg/kg
- NOAEL [5]: ≥100 mg/kg/day
- acute NOAEL and repeat NOAEL, intravenous administration [6]: 450 mg/kg
- Safety Margin Human Oral [7]: 96× compared
- NOAEL [8]: ≥2400 mg/kg
- glutathione in rat lungs and leukocytes [9]: preserved
- adverse experiences possibly related to treatment ([10]; across all clinical trials): only minor adverse experiences
- statistically significant adverse events ([10]; human clinical trials): No statistical significant adverse events were observed
- tolerability ([10]; human clinical trials): well tolerated
- tolerability ([10]; human clinical trials, listed as procysteine (Cellactin)): generally well tolerated without observed adverse effects; also recorded: well tolerated
- independence from mechanical ventilation versus placebo [11]: a median of five days earlier
- estimate of safety margin [12]: 4-8 ×
- NOAEL [13]: ≥2400 mg/kg
- efficiency in transporting oxygen to the blood stream (measure of lung function) [14]: to a greater degree than did placebo-treated patients
- shelf life (stable as supplied), by extrapolation ([15]; original package, ambient temperature, protected from heat and moisture): 2 years
- purity percent change ([15]; two preparation batches, T0 to T6 (months)): No purity percent change
- Safety Margin Human Oral [16]: 18× compared
- Safety Margin Human Oral [17]: 5X compared
- tissue glutathione levels [18]: increased (repleted)
- tissue glutathione levels [19]: increased (repleted)
- Safety Margin Human Oral [20]: 4X compared
- NOAEL ([21]; expressed per day): ≥ 189 mg/kg/day
- NOAEL [21]: ≥63 mg/kg/8 hours
- Safety Margin Human Oral [22]: 1X compared
- Safety Margin Human Oral [23]: 5X compared
- Safety Margin Human Oral [24]: 8X compared
- Mouse Micronucleus, genetic toxicity [25]: negative
- cellular glutathione levels [26]: maintained
- Safety Margin Human Oral [27]: 96× compared
- EDI/ADI ratio ([28]; 9 grams/day / 9 grams/day): 1
- Safety Margin Human Oral ([28]; compared to human oral, 2 years, suggested human oral dose 25 mg/kg/day): 5X compared
- ADI [28, 39]: < 9 grams/day
- estimated daily intake (EDI) [28, 39]: < 9 grams/day
- acceptable daily intake (ADI) ([28]; human, oral, based on 9 grams per day for 2 years): up to 9 grams per day
- safety margin ([28]; recommended oral daily intake 1.75 g compared to 9 grams per day taken orally for 2 years): 5 ×
- safety margin [29]: 18 ×
- blood glutathione levels [30]: significant increase
- NOAEL [31]: ≥25 mg/kg/day
- NOAEL [32]: ≥450 mg/kg
- NOAEL ([33]; Human HIV patients, orally up to 9000 mg/day for 2 years, highest dose tested): ≥129 mg/kg/day
- changes in serum chemistry or hematology ([33]; human, up to 9 grams per day orally for 2 years): without clinically significant changes
- acute NOAEL and repeat NOAEL, intravenous administration [34]: 2400 mg/kg
- Safety Margin Human Oral [35]: 96× compared
- NOAEL [36]: ≥450 mg/kg
- ROS damage [37]: prevent
- intracellular levels of glutathione [37]: increase
- NOAEL [38]: ≥2400 mg/kg
